Reference: patent US10201559B2, “Compositions of selenoorganic compounds and methods of use thereof” (Alltech, Inc., priority 2014, dated 2019)

Tests used:
[1] = test system: PSEN; test: Real-time RT-PCR, PSEN in IMR-32 cells; format: cell-based, human; settings: individual compound
Experimental: Human IMR-32 cells were seeded on gelatinized 6-well (6.5×10^5 cells/well) or 24-well (1.3×10^5 cells/well) plates, while mouse liver AML-12 cells were cultured on uncoated 6-well (3.33×10^5 cells/well) or 24-well (6.7×10^4 cells/well) plates. Cells were treated with vehicle (control) or various compounds for 6, 24 or 48 hr. Total RNA from these cells was using Trizol (Invitrogen) according to the Manufacturer's protocol, and then incubated with DNase I to remove any potential contaminated genomic DNA. Then RNA samples were subjected to real-time PCR analysis using the Applied-Bioscience's RT kit and predesigned Taqman probes (Invitrogen), as described previously (Lan et al EMBO J 2003). Three to six samples were analyzed in each treatment group. Data were normalized by Actin B (Actb) or Glyceraldehyde Phosphate Dehydrogenase (Gapdh) levels in each sample, and are presented as mean±sem of 3-6 samples.

[2] = test system: Tau; test: Western blot, ratio of phosphorylated Tau to total Tau in IMR-32 cells; format: cell-based, human; settings: 150 ppb, 24 hr
Experimental: (§1) IMR-32 and AML12 cells were seeded on 6-well plates, and then treated with vehicle and various compounds for 6 and 24 hr, as described above. After treatments, cells were rinsed with ice-cold PBS, and lysed in the ice-cold RIPA buffer containing complete proteinase and phosphotase inhibitors (Themo-Fisher Scientific, Waltham, Mass.) on ice for 30 min. Cell lysates were collected using a cell scraper and transfer pipette, and then centrifuged at 12000 g for 30 min at 4° C. to remove the DNA pellet and obtain the protein extract. Protein levels in the supernatant of these cell lysates were determined using the Pierce Micro-BCA protein assay kit (Themo Scientific-Piece Biotechnology, Rockford, Ill.) according to the manufacturer's protocol.
(§2) For Western blot analysis, five micrograms of total proteins from vehicle- and compound(s)-treated cells were subjected to SDS-PAGE gel separation, and then transferred to PVDF membranes, as described previously (Reddy, Liu et al. 2008 Science). […] All primary antibodies except G6PC (Santa Cruz), Actb (Li-COR, Lincoln, Nebr.), Elf2bε and pElf2bε (Abcam, Cambridge, Mass.) were purchased from Cell Signaling Inc. Positive signals on the membrane blots were detected using the Amersham's enhanced chemiluminescence Western Blotting Prime Detection reagents (GE healthcare Lifescience, Pittsburgh, Pa.). […]

[3] = test system: AML-12 cells; test: Quantitative analysis of mitochondrial potential in AML-12 cells; format: cell-based, mouse; settings: 150 ppb (of each compound), 6 and 24 hr
Experimental: For AML-12 liver cells, cells were amplified in 10% FBS Dulbecco's modified Eagle's medium and Ham's F12 medium (1:1) (DMEM/F12) media supplemented with 1× Insulin/Transferin/Selenium (ITS, Sigma). Then equal number of cells (1×10^4 cells/well) were seeded on Corning 96-well clear-bottom and dark-wall cell culture plates (VWR, Radnor, Pa.), cultured in ITS-free 10% FBS DMEM/F12 media for 24 hr., and then subjected to the treatments of various compounds or combination of compounds for 6, 24, and 48 hr. Mitochondrial potential in living cells was determined by quantitative analysis of fluorescence intensities using the Mitotracker orange dye as described above. In addition, the above treated cells were also incubated with Hoechst 33342 dye (Invitrogen, Grand Island, N.Y.) to stain cell nuclei according to the Manufacturer's protocol. The fluorescent intensities of stained cell nuclei by Hoechst 33342 dye were also determined by the fluorescence microplate reader. The mitochondrial potential per cell in living cells was obtained by normalizing the fluorescence intensities of Mitotracker orange dye to the fluorescence intensities of Hoechst 33342 dye in each well. Eight samples per each treatment were examined for the above analysis and data are presented as mean±sem of eight samples.

[4] = test system: HEK293T cells; test: Fluorescence analysis of mitochondrial potential in HEK293T cells; format: cell-based, human; settings: for MT potential (Mitotracker Orange fluorescence): 4.5 hr; for MT potential / mitochondrial activity in kidney cells: dose not stated
Experimental: HEK293T cells were cultured in 8-chamber glass slides (1×10^4 cells/chamber) for 24 hours, and then treated with various concentrations of compounds or its respective sulfur analogs (dissolved in sterilized water) for 4.5 hr. These compound-treated cells were rinsed twice with PBS, and incubated with Mitotracker Orange Fluorescence Dye (Invitrogen) at 37° C. for 30 min, and then replaced with fresh PBS according to the Manufacturer's protocol. Then fluorescent signals (mitochondrial potential) in these living cells were recorded using a Zeiss Axio Vert.A1 fluorescence microscope (Thornwood, N.Y.). At least three samples in each treatment group were analyzed under the fluorescent microscope.

[5] = test system: pTau S396; test: Western blot, pTau S396 in IMR-32 cells; format: cell-based, human; settings: 150 ppb, 24 hr
Experimental: as §1, §2

[6] = test system: rat brain cortex mitochondria; test: OCR of calcium-stressed rat brain cortex mitochondria (SeaHorse); format: biochemical; settings: calcium (10 μM) and 150 ppb compound; control 1,677, calcium alone 1,066
Experimental: The following example describes an experiment performed in the SeaHorse external flux analyzer; an instrument for measuring the respiration rate of mitochondria expressed as the oxygen consumption rate, or OCR. The experiment in question used mitochondria from the brain cortex of normal rats, maintained on normal laboratory chow which had not been fortified with any additional selenium sources.
An identical sample of the same mitochondrial preparation was treated in exactly the same manner as the control sample except that calcium (10 micromolar final concentration) was added to stress or damage the mitochondria by depolarizing them. As shown (bottom line) the OCR dropped from a value of 1,677 to 1,066 pMoles/min O2.
Again, identical samples of rat brain cortex mitochondria were incubated as above except that they contained calcium (10 μM) and 150 ppb of compounds D and E, respectively. C was not tested. It is evident that the OCR of the compound-treated, calcium-stressed mitochondria were restored to near control levels, i.e. 1,564 pMoles/min O2 in the case of compound D and 1,531 pMoles/min O2 in the case of compound E.

Row | Compound | PSEN mRNA expression ([1]; 6 hr) | PSEN mRNA expression ([1]; 24 hr) | ratio of total pTauS396 and pTauS400/T403/S404 to total Tau proteins [2] | MT potential [3] | MT potential (Mitotracker Orange fluorescence) ([4]; 37.5 ppb) | MT potential (Mitotracker Orange fluorescence) ([4]; 75 ppb) | MT potential / mitochondrial activity in kidney cells [4] | phosphorylation of Tau at S396 [5] | OCR (oxygen consumption rate) [6] | MT potential (Mitotracker Orange fluorescence) ([4]; all tested doses (37.5 and 75 ppb))
1 | C[Se]C[C@H]1O[C@@H](n2cnc3c(N)ncnc32)C(O)C1O (stereo in doubt) [compound C, 5′-Methylselenoadenosine] | significantly reduced | significantly reduced | significantly attenuated total phosphorylation of Tau protein | did not significantly affect MT potential | enhanced MT potential | less effects on MT potential | enhanced MT potential |  |  | 
2 | Nc1ncnc2c1ncn2[C@@H]1O[C@H](C[Se]CC[C@@H](N)C(=O)O)C(O)C1O (stereo partly drawn) [compound D, 5′-Selenoadenosyl homocysteine] |  | did not inhibit, but instead stimulated |  | did not significantly affect MT potential |  |  | ineffective | had no effect on Tau phosphorylation at all tested serine/threonine residues | 1,564 pMoles/min O2 | did not affect MT potential
3 | C[Se]CC(NC(=O)CCC(N)C(=O)O)C(=O)O (stereo not drawn) [compound E, gamma-glutamyl-methylseleno-cysteine] |  | did not inhibit, but instead stimulated | trend of reduced Tau phosphorylation | did not significantly affect MT potential |  |  |  | significantly down-regulated | 1,531 pMoles/min O2 | 
